Laboratory results reported in patent US8173144B2, “Administration of urea compounds for combating signs of cutaneous aging” (L'Oreal, priority 2004, dated 2012).

Tested on: acid proteases of the SC (stratum corneum)
Experiment: Activation of acid proteases of the stratum corneum (Enzchek fluorimetry, Bodipy FL casein substrate)
Format: biochemical
Protocol: The property of activating certain acid proteases of the SC (stratum corneum) is evaluated. This activity is measured by virtue of a quantitative determination by fluorimetry using the Enzchek kit (Molecular Probes). This protocol uses a Bodipy FL casein substrate which releases fluorescence when it is hydrolyzed. The fluorescence released is directly proportional to the protease activity. It is read directly in a 96-well plate with a spectrofluorimeter at 750 V at 485 nm in excitation and 535 nm in emission.
The molecules are prepared at 0, 1, 2 and 4M in a 0.1M; pH 5.0; acetate buffer.
An enzyme extract is prepared from acetone powders.
2 ml of PBS buffer+0.1% of Triton X100 are brought into contact for 1 h in crushed ice with 200 mg of stratum corneum acetone powders. The mixture is subsequently ground in a Potter homogenizer and then centrifuged at 15 000 g for 10 min at 4° C. The supernatant is collected. The Enzchek substrate, diluted to 1/200, is incorporated in each solution comprising the molecules. The assays are repeated three times.
The reaction mixture is prepared directly in a white plate.
10 μl of enzyme extract are added to 200 μl of solution comprising the substrate at 0, 1, 2 or 4M. The readings are carried out at t0, t 2h, t 16h and t 24h.

[1] = 1 and 2M in 0.1M acetate buffer pH 5.0, readings t0, t 2h, t 16h, t 24h

| SMILES | acid protease activity (fluorescence) with respect to the control [1] | acid protease activity (fluorescence) with respect to the control (4M in 0.1M acetate buffer pH 5.0, whatever the time studied) |
| --- | --- | --- |
| NC(=O)NCCO [N-(2-hydroxethyl)urea, N-(2-hydroxyethyl)urea] | significant increase in the activity | marked decrease in the activity |
| NC(N)=O [Urea, urea] | slightly activating effect on the acid proteases up to two hours | – |
